≈ marks a conversion by molar mass, not a printed value.
Legend:
Type in all cases: cell-based
ESCHERICHIA COLI SS = test: In vitro antibacterial activity, MIC, BHI agar dilution; conditions: E. coli SS, unit assumed
[1] = system: STREPTOCOCCUS PYOGENES EES61; test: as above; conditions: S. pyogenes EES61, unit assumed
[2] = system: STAPHYLOCOCCUS AUREUS 1775; test: as above; conditions: S. aureus 1775, unit assumed
M[…] ATCC 9341 = test: as above; conditions: M. luteus ATCC 9341, unit assumed
Method in brief: (§1)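 Agar dilution in BHI: plates inoculated with 1:100 dilutions of organisms (1:10 for Micrococcus and Streptococcus), incubated 20-24 h at 35-37° C, then inspected for the lowest inhibitory concentration against a drug-free growth control.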

M[…] ATCC 4698 = test: as above; conditions: M. luteus ATCC 4698, unit assumed
Method in brief: as §1

STR[…] 508 = test: as above; conditions: S. agalactiae CMX 508, unit assumed
Method in brief: as §1

EN[…] ATCC 8043 = test: as above; conditions: E. faecium ATCC 8043, unit assumed
Method in brief: as §1

[3] = system: PSEUDOMONAS AERUGINOSA DPHD-2862; test: as above; conditions: P. aeruginosa DPHD-2862, unit assumed
[4] = system: STAPHYLOCOCCUS AUREUS CMX 553; test: as above; conditions: S. aureus CMX 553, unit assumed
[5] = system: MYCOBACTERIUM SMEGMATIS ATCC 114; test: as above; conditions: M. smegmatis ATCC 114, unit assumed
PSEUDOMONAS CEPACIA 296I = test: as above; conditions: P. cepacia 296I, unit assumed
[6] = system: STAPHYLOCOCCUS AUREUS ATCC 6538P; test: as above; conditions: S. aureus ATCC 6538P, 35-37° C., 20 to 24 hours, unit assumed
[7] = system: STREPTOCOCCUS PYOGENES 930; test: as above; conditions: S. pyogenes 930, unit assumed
[8] = system: PSEUDOMONAS AERUGINOSA K799/WT; test: as above; conditions: P. aeruginosa K799/WT, unit assumed
[9] = system: PROVIDENCIA STUARTII CMX 640; conditions: P. stuartii CMX 640; BHI agar; unit assumed
[10] = system: STAPHYLOCOCCUS AUREUS NCTC10649M; test: In vitro antibacterial activity, MIC, BHI agar dilution; conditions: S. aureus NCTC10649M, unit assumed
[11] = system: KLEBSIELLA PNEUMONIAE ATCC 8045; test: as above; conditions: K. pneumoniae ATCC 8045, unit assumed
[12] = system: PSEUDOMONAS AERUGINOSA 5007; test: as above; conditions: P. aeruginosa 5007, unit assumed
[13] = system: ENTEROBACTER AEROGENES ATCC 13048; test: as above; conditions: E. aerogenes ATCC 13048, unit assumed
ESCHERICHIA COLI H560 = test: as above; conditions: E. coli H560, unit assumed
[14] = system: STAPHYLOCOCCUS AUREUS A5177; test: as above; conditions: S. aureus A5177, unit assumed
CANDIDA ALBICANS CCH 442 = test: as above; conditions: C. albicans CCH 442, unit assumed
[15] = system: STREPTOCOCCUS PYOGENES PIU 2548; test: as above; conditions: S. pyogenes PIU 2548, unit assumed
[16] = system: STAPHYLOCOCCUS EPIDERMIDIS 3519; conditions: S. epidermidis 3519; BHI agar; unit assumed
[17] = system: STREPTOCOCCUS BOVIS A-5169; test: In vitro antibacterial activity, MIC, BHI agar dilution; conditions: S. bovis A-5169, unit assumed
[18] = system: PSEUDOMONAS AERUGINOSA K799/61; test: as above; conditions: P. aeruginosa K799/61, unit assumed
[19] = system: ACINETOBACTER CALCOACETICUS CMX 669; test: as above; conditions: A. calcoaceticus CMX 669, unit assumed
[20] = system: PSEUDOMONAS AERUGINOSA BMH10; test: as above; conditions: P. aeruginosa BMH10, unit assumed
[21] = system: STAPHYLOCOCCUS AUREUS A-5278; test: as above; conditions: S. aureus A-5278, unit assumed
[22] = system: STAPHYLOCOCCUS AUREUS CMX 642A; test: as above; conditions: S. aureus CMX 642A, unit assumed
ESCHERICHIA COLI JUHL = conditions: E. coli JUHL; BHI agar; unit assumed
[23] = system: PSEUDOMONAS AERUGINOSA DPHD-5263; test: In vitro antibacterial activity, MIC, BHI agar dilution; conditions: P. aeruginosa DPHD-5263, unit assumed
ESCHERICHIA COLI DC-2 = test: as above; conditions: E. coli DC-2, unit assumed
ESCHERICHIA COLI KNK 437 = conditions: E. coli KNK 437; BHI agar; unit assumed

Structure (SMILES)	MIC (ESCHERICHIA COLI SS)	MIC [1]	MIC [2]	MIC (M[…] ATCC 9341)	MIC (M[…] ATCC 4698)	MIC (STR[…] 508)	MIC (EN[…] ATCC 8043)	MIC [3]	MIC [4]	MIC [5]	MIC (PSEUDOMONAS CEPACIA 296I)	MIC [6]	MIC [7]	MIC [8]	MIC [9]	MIC [10]	MIC [11]	MIC [12]	MIC [13]	MIC (ESCHERICHIA COLI H560)	other results
CCC1OC(=O)C(C)C(=O)C(C)C(OC2OC(C)CC(N(C)C)C2O)C(C)(OC)CC(C)C2=NC(COCc3cc(OC)cc(OC)c3)CN3C(=O)OC1(C)C3C2C (stereo not drawn) [Example 100]	1.56 mg/L (≈ 1.91 µM)	0.01 mg/L (≈ 0.0122 µM)	> 100 mg/L	< 0.005 mg/L	0.1 mg/L (≈ 0.122 µM)	0.01 mg/L (≈ 0.0122 µM)	0.01 mg/L (≈ 0.0122 µM)	> 100 mg/L	0.1 mg/L (≈ 0.122 µM)	0.78 mg/L (≈ 0.954 µM)	100 mg/L (≈ 122 µM)	0.1 mg/L (≈ 0.122 µM)	100 mg/L (≈ 122 µM)	> 100 mg/L	> 100 mg/L	0.05 mg/L (≈ 0.0611 µM)	> 100 mg/L	> 100 mg/L	> 100 mg/L	50 mg/L (≈ 61.1 µM)	MIC [14]: 0.1 mg/L (≈ 0.122 µM); MIC (CANDIDA ALBICANS CCH 442): > 100 mg/L; MIC [15]: 0.2 mg/L (≈ 0.244 µM); MIC [16]: 0.2 mg/L (≈ 0.244 µM); MIC [17]: 0.01 mg/L (≈ 0.0122 µM); MIC [18]: 1.56 mg/L (≈ 1.91 µM); MIC [19]: 100 mg/L (≈ 122 µM); MIC [20]: > 100 mg/L; MIC [21]: > 100 mg/L; MIC [22]: 0.2 mg/L (≈ 0.244 µM); MIC (ESCHERICHIA COLI JUHL): > 100 mg/L; MIC [23]: > 100 mg/L; MIC (ESCHERICHIA COLI DC-2): > 100 mg/L; MIC (ESCHERICHIA COLI KNK 437): > 100 mg/L
CC[C@H]1OC(=O)[C@H](C)C(=O)[C@H](C)[C@@H](O[C@@H]2O[C@H](C)C[C@H](N(C)C)[C@H]2O)[C@](C)(OC)C[C@@H](C)C2=N[C@H](COCc3ccc(F)cc3)CN3C(=O)O[C@@]1(C)[C@H]3[C@H]2C [Example 101]	0.2 mg/L (≈ 0.258 µM)	≤ 0.005 mg/L	> 100 mg/L	≤ 0.005 mg/L	0.02 mg/L (≈ 0.0258 µM)	≤ 0.005 mg/L	≤ 0.005 mg/L	> 100 mg/L	0.05 mg/L (≈ 0.0644 µM)	0.39 mg/L (≈ 0.503 µM)	100 mg/L (≈ 129 µM)	0.05 mg/L (≈ 0.0644 µM)	> 100 mg/L	> 100 mg/L	> 100 mg/L	0.05 mg/L (≈ 0.0644 µM)	> 100 mg/L	> 100 mg/L	> 100 mg/L	100 mg/L (≈ 129 µM)	MIC [14]: 0.05 mg/L (≈ 0.0644 µM); MIC (CANDIDA ALBICANS CCH 442): > 100 mg/L; MIC [15]: 0.05 mg/L (≈ 0.0644 µM); MIC [16]: 0.1 mg/L (≈ 0.129 µM); MIC [17]: ≤ 0.005 mg/L; MIC [18]: 1.56 mg/L (≈ 2.01 µM); MIC [19]: 100 mg/L (≈ 129 µM); MIC [20]: > 100 mg/L; MIC [21]: > 100 mg/L; MIC [22]: 0.1 mg/L (≈ 0.129 µM); MIC (ESCHERICHIA COLI JUHL): > 100 mg/L; MIC [23]: > 100 mg/L; MIC (ESCHERICHIA COLI DC-2): > 100 mg/L; MIC (ESCHERICHIA COLI KNK 437): > 100 mg/L
CC[C@H]1OC(=O)[C@H](C)C(=O)[C@H](C)[C@@H](O[C@@H]2O[C@H](C)C[C@H](N(C)C)[C@H]2O)[C@](C)(OC)C[C@@H](C)C2=N[C@H](COCc3ccccc3Br)CN3C(=O)O[C@@]1(C)[C@H]3[C@H]2C [Example 104]	0.78 mg/L (≈ 0.932 µM)	0.01 mg/L (≈ 0.0119 µM)	100 mg/L (≈ 119 µM)	0.02 mg/L (≈ 0.0239 µM)	0.1 mg/L (≈ 0.119 µM)	0.01 mg/L (≈ 0.0119 µM)	0.01 mg/L (≈ 0.0119 µM)	> 100 mg/L	0.05 mg/L (≈ 0.0597 µM)	0.39 mg/L (≈ 0.466 µM)	100 mg/L (≈ 119 µM)	0.05 mg/L (≈ 0.0597 µM)	25 mg/L (≈ 29.9 µM)	> 100 mg/L	> 100 mg/L	0.05 mg/L (≈ 0.0597 µM)	> 100 mg/L	> 100 mg/L	> 100 mg/L	50 mg/L (≈ 59.7 µM)	MIC [14]: 0.05 mg/L (≈ 0.0597 µM); MIC (CANDIDA ALBICANS CCH 442): 100 mg/L (≈ 119 µM); MIC [15]: 0.05 mg/L (≈ 0.0597 µM); MIC [16]: 0.05 mg/L (≈ 0.0597 µM); MIC [17]: 0.01 mg/L (≈ 0.0119 µM); MIC [18]: 3.1 mg/L (≈ 3.7 µM); MIC [19]: 100 mg/L (≈ 119 µM); MIC [20]: > 100 mg/L; MIC [21]: 100 mg/L (≈ 119 µM); MIC [22]: 0.05 mg/L (≈ 0.0597 µM); MIC (ESCHERICHIA COLI JUHL): 100 mg/L (≈ 119 µM); MIC [23]: > 100 mg/L; MIC (ESCHERICHIA COLI DC-2): 100 mg/L (≈ 119 µM); MIC (ESCHERICHIA COLI KNK 437): > 100 mg/L

— patent US6274715A, “Tricyclic erythromycin derivatives” (priority 1997, dated 2001)
